Results published in ChEMBL document CHEMBL1201862, “PubChem BioAssay data set” (2004).
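Results reflect a 48-hour exposure of cells in 96-well plates to compound at five concentrations. The concentration for 50% growth inhibition is given as GI50.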 The source made the active and inactive calls. No stated cut-off is given here; in the data, active = GI50 up to about 1.1 µM and inactive = higher.

How the values were obtained:
Experiment in all cases: DTP human tumour cell line panel, 48 h
KM-20L2 = test system: KM-20L2
SK-OV-3 = test system: SK-OV-3
OVCAR-5 = test system: OVCAR-5
SK-MEL-2 = test system: SK-MEL-2
DU-145 = test system: DU-145
SNB-19 = test system: SNB-19
A549 = test system: A549
ACHN = test system: ACHN
SK-MEL-28 = test system: SK-MEL-28
HT-29 = test system: HT-29
UO-31 = test system: UO-31
SF-268 = test system: SF-268
SK-MEL-5 = test system: SK-MEL-5
T47D = test system: T47D
MCF7 = test system: MCF7
SN12C = test system: SN12C
NCI-H23 = test system: NCI-H23
OVCAR-3 = test system: OVCAR-3
IGROV-1 = test system: IGROV-1
786-0 = test system: 786-0
Hs-578T = test system: Hs-578T
SNB-75 = test system: SNB-75
TK-10 = test system: TK-10
HCT-116 = test system: HCT-116
K562 = test system: K562
SF-295 = test system: SF-295
CAKI-1 = test system: CAKI-1
MDA-MB-231 = test system: MDA-MB-231
SW-620 = test system: SW-620
XF498 = test system: XF498
U-251 = test system: U-251
LOX IMVI = test system: LOX IMVI
NCI-H522 = test system: NCI-H522
HCC 2998 = test system: HCC 2998
EKVX = test system: EKVX
M14 = test system: M14
NCI-H460 = test system: NCI-H460
HL-60 = test system: HL-60
RPMI-8226 = test system: RPMI-8226
SF-539 = test system: SF-539
DMS-114 = test system: DMS-114
Malme-3M = test system: Malme-3M
OVCAR-4 = test system: OVCAR-4
UACC-257 = test system: UACC-257
CCRF-CEM = test system: CCRF-CEM
BT-549 = test system: BT-549
UACC-62 = test system: UACC-62
M19-MEL = test system: M19-MEL
DLD-1 = test system: DLD-1
A498 = test system: A498
MDA-N = test system: MDA-N
NCI/ADR-RES = test system: NCI/ADR-RES
HOP-62 = test system: HOP-62
NCI-H226 = test system: NCI-H226
HCT-15 = test system: HCT-15
RXF 393 = test system: RXF 393
OVCAR-8 = test system: OVCAR-8
PC-3 = test system: PC-3
MDA-MB-435 = test system: MDA-MB-435
MOLT-4 = test system: MOLT-4
COLO 205 = test system: COLO 205
KM12 = test system: KM12
LXFL 529 = test system: LXFL 529
SR = test system: SR
HOP-18 = test system: HOP-18
SNB-78 = test system: SNB-78
HOP-92 = test system: HOP-92
DMS-273 = test system: DMS-273

## CC(=O)O[C@H]1C(=O)[C@@]2(C)C([C@H](OC(=O)c3ccccc3)[C@]3(O)C[C@H](OC(=O)[C@H](O)[C@@H](NC(=O)c4ccc(Cl)cc4)c4ccccc4)C(C)=C1C3(C)C)C1(OC(C)=O)CO[C@@H]1C[C@@H]2O (some centres not stated)
KM-20L2
  GI50: < 0.01 µM (active)
SK-OV-3
  GI50: 0.0986 µM (active)
OVCAR-5
  GI50: 0.104 µM (active)
SK-MEL-2
  GI50: 0.0274 µM (active)
DU-145
  GI50: 0.0865 µM (active)
SNB-19
  GI50: 0.137 µM (active)
A549
  GI50: 0.168 µM (active)
ACHN
  GI50: 6.47 µM (inactive)
SK-MEL-28
  GI50: 0.114 µM (active)
HT-29
  GI50: 0.03 µM (active)
UO-31
  GI50: 11.1 µM (inactive)
SF-268
  GI50: 0.156 µM (active)
SK-MEL-5
  GI50: < 0.01 µM (active)
T47D
  GI50: 0.82 µM (active)
MCF7
  GI50: 0.0181 µM (active)
SN12C
  GI50: 0.182 µM (active)
NCI-H23
  GI50: 0.0738 µM (active)
OVCAR-3
  GI50: 0.0346 µM (active)
IGROV-1
  GI50: 0.0946 µM (active)
786-0
  GI50: 0.123 µM (active)
Hs-578T
  GI50: 0.0188 µM (active)
SNB-75
  GI50: 0.021 µM (active)
TK-10
  GI50: 0.661 µM (active)
HCT-116
  GI50: 0.0499 µM (active)
K562
  GI50: > 25 µM (inactive)
SF-295
  GI50: 0.6 µM (active)
CAKI-1
  GI50: 3.06 µM (inactive)
MDA-MB-231
  GI50: 0.265 µM (active)
SW-620
  GI50: 0.0569 µM (active)
XF498
  GI50: 0.0303 µM (active)
U-251
  GI50: 0.092 µM (active)
LOX IMVI
  GI50: < 0.01 µM (active)
NCI-H522
  GI50: 0.0775 µM (active)
HCC 2998
  GI50: < 0.01 µM (active)
EKVX
  GI50: 9.2 µM (inactive)
M14
  GI50: 0.0889 µM (active)
NCI-H460
  GI50: 0.0668 µM (active)
HL-60
  GI50: 0.0025 µM (active)
RPMI-8226
  GI50: < 0.01 µM (active)
SF-539
  GI50: 0.0689 µM (active)
DMS-114
  GI50: < 0.01 µM (active)
Malme-3M
  GI50: 0.094 µM (active)
OVCAR-4
  GI50: 7.21 µM (inactive)
UACC-257
  GI50: 0.109 µM (active)
CCRF-CEM
  GI50: < 0.01 µM (active)
BT-549
  GI50: 0.0643 µM (active)
UACC-62
  GI50: 0.0435 µM (active)
M19-MEL
  GI50: < 0.01 µM (active)
DLD-1
  GI50: 0.0222 µM (active)
A498
  GI50: 0.322 µM (active)
MDA-N
  GI50: 0.00665 µM (active)
NCI/ADR-RES
  GI50: 14.9 µM (inactive)
HOP-62
  GI50: 0.474 µM (active)
NCI-H226
  GI50: 0.173 µM (active)
HCT-15
  GI50: 1.36 µM
RXF 393
  GI50: 1.02 µM (active)
OVCAR-8
  GI50: 0.0778 µM (active)
PC-3
  GI50: 0.0615 µM (active)
MDA-MB-435
  GI50: 0.00507 µM (active)
MOLT-4
  GI50: 21.3 µM (inactive)
COLO 205
  GI50: 0.0607 µM (active)
KM12
  GI50: 0.0466 µM (active)
LXFL 529
  GI50: < 0.01 µM (active)

## S=C1OC2C3C4CC5C3C(O1)C1C5C4C21 (configuration not stated)
KM-20L2
  GI50: > 100 µM (inactive)
SK-OV-3
  GI50: > 100 µM (inactive)
OVCAR-5
  GI50: > 100 µM (inactive)
SNB-19
  GI50: > 100 µM (inactive)
A549
  GI50: > 100 µM (inactive)
ACHN
  GI50: > 100 µM (inactive)
SK-MEL-28
  GI50: > 100 µM (inactive)
HT-29
  GI50: > 100 µM (inactive)
UO-31
  GI50: > 100 µM (inactive)
SF-268
  GI50: > 100 µM (inactive)
SK-MEL-5
  GI50: > 100 µM (inactive)
SN12C
  GI50: > 100 µM (inactive)
OVCAR-3
  GI50: > 100 µM (inactive)
IGROV-1
  GI50: > 100 µM (inactive)
786-0
  GI50: > 100 µM (inactive)
SR
  GI50: > 100 µM (inactive)
SNB-75
  GI50: > 100 µM (inactive)
TK-10
  GI50: > 100 µM (inactive)
HCT-116
  GI50: 45.2 µM (inactive)
SF-295
  GI50: > 100 µM (inactive)
CAKI-1
  GI50: > 100 µM (inactive)
SW-620
  GI50: > 100 µM (inactive)
U-251
  GI50: > 100 µM (inactive)
LOX IMVI
  GI50: 74 µM (inactive)
NCI-H522
  GI50: > 100 µM (inactive)
HCC 2998
  GI50: > 100 µM (inactive)
EKVX
  GI50: > 100 µM (inactive)
M14
  GI50: > 100 µM (inactive)
NCI-H460
  GI50: 58.5 µM (inactive)
HL-60
  GI50: > 100 µM (inactive)
RPMI-8226
  GI50: > 100 µM (inactive)
SF-539
  GI50: > 100 µM (inactive)
DMS-114
  GI50: 45.6 µM (inactive)
Malme-3M
  GI50: > 100 µM (inactive)
OVCAR-4
  GI50: > 100 µM (inactive)
UACC-257
  GI50: > 100 µM (inactive)
CCRF-CEM
  GI50: > 100 µM (inactive)
UACC-62
  GI50: > 100 µM (inactive)
M19-MEL
  GI50: > 100 µM (inactive)
HOP-18
  GI50: > 100 µM (inactive)
DLD-1
  GI50: > 100 µM (inactive)
A498
  GI50: > 100 µM (inactive)
SNB-78
  GI50: > 100 µM (inactive)
HOP-92
  GI50: > 100 µM (inactive)
HOP-62
  GI50: > 100 µM (inactive)
NCI-H226
  GI50: > 100 µM (inactive)
HCT-15
  GI50: > 100 µM
RXF 393
  GI50: > 100 µM (inactive)
OVCAR-8
  GI50: > 100 µM (inactive)
MOLT-4
  GI50: > 100 µM (inactive)
DMS-273
  GI50: 89.1 µM (inactive)
COLO 205
  GI50: > 100 µM (inactive)
KM12
  GI50: > 100 µM (inactive)
LXFL 529
  GI50: > 100 µM (inactive)
